Laboratory results taken from US20250163064A1, “QUINAZOLINE COMPOUNDS AND USES THEREOF AS INHIBITORS OF MUTANT KRAS PROTEINS” (AMGEN INC., priority 2022, published 2025).
Like-named read-outs stand apart in the source and are kept apart here.

Tests used:
[1] = target: GDP-bound KRAS protein (aa 1-169), G12D and C118A; SOS-mediated nucleotide exchange (Homo sapiens (Human), UniProt P01116, C118A/G12D); assay: KRAS G12D Coupled Nucleotide Exchange Assay; format: biochemical; details: 2 h compound pre-incubation, GTP, cRAF AlphaScreen
Sequence of GDP-bound KRAS protein (aa 1-169), G12D and C118A; SOS-mediated nucleotide exchange (P01116 other isoform, or with tags, fused parts or gaps G12D/C118A): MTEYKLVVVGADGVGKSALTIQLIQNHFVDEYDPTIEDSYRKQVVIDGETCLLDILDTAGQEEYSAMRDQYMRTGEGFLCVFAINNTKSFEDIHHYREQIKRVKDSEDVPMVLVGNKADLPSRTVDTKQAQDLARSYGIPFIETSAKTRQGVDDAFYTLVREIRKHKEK
Protocol: Purified GDP-bound KRAS protein (aa 1-169), containing both G12D and C118A amino acid substitutions and an N-terminal His-tag, was pre-incubated in assay buffer (25 mM HEPES pH 7.4, 10 mM MgCl2, and 0.01% Triton X-100) with a compound dose-response titration for 2 h. Following compound pre-incubation, purified SOS protein (aa 564-1049) and GTP (Roche 10106399001) were added to the assay wells and incubated for an additional 30 min. […] The assay plates were then read on a PerkinElmer En Vision Multilabel Reader, using AlphaScreen® technology, and data were analyzed using a 4-parameter logistic model to calculate IC50 values.

[2] = target: His-tagged KRAS G12D protein (Homo sapiens (Human), UniProt P01116, G12D); assay: KRAS G12D TR-FRET Assay; format: binding; details: biotinylated KRPep-2d, 10 μM GDP
Sequence of His-tagged KRAS G12D protein (P01116-2 other isoform, or with tags, fused parts or gaps G12D): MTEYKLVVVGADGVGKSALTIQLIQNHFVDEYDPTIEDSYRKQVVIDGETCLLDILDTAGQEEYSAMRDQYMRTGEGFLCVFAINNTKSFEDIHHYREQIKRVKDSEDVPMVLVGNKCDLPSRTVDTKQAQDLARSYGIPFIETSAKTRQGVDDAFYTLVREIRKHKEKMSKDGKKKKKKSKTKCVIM
Protocol: Compounds of interest were prepared in a dose-response titration in DMSO, and 80 nL were added via Labcyte Echo to each well of a 384-well plate (Perkin Elmer 6008280). The His-tagged KRAS G12D protein (Amgen) was diluted to 20 nM in Assay Buffer (20 mM HEPES, pH 7.4, 10 mM MgCl2, 50 mM NaCl, 0.1% BSA, 0.01% Tween-20, 10 μM GDP) and 2 μL was added to the appropriate wells of the 384-well plate. The plate was incubated for 30 minutes at rt. Biotinylated KRPep-2d substrate (Amgen) was diluted to […] in Assay Buffer and 2 AL was added to all wells and incubated for 1 hour at room temperature. Detection Reagent (0.4 nM LANCE Eu-W1024 Anti-6×His (Perkin Elmer AD0401), 5 nM streptavidin-d2 (Cisbio 610SADLA)) was prepared in Assay Buffer, then 4 AL was added to the plate and incubated for 1 h at rt. Plates were read using PerkinElmer En Vision (ex: 320 nm, em1: 665 nm, em2: 615 nm) and em1/em2 data was used to generate curve fits using a 4-parameter logistic model to calculate IC50 values.

[3] = tested on: Phosphorylation of ERK1/2 in AsPC-1 cells; assay: Phospho-ERK1/2 MSD Assay; format: cell-based
Protocol: AsPC-1 (ATCC® CRL-1682TM) cells were cultured in RPMI 1640 Medium (ThermoFisher Scientific 11875093) containing 10% fetal bovine serum (ThermoFisher Scientific 16000044) and 1× penicillin-streptomycin-glutamine (ThermoFisher Scientific 10378016). Sixteen hours prior to compound treatment, AsPC-1 cells were seeded in 96-well cell culture plates at a density of 25,000 cells/well and incubated at 37° C., 5% CO2. A compound dose-response titration was diluted in growth media, added to appropriate wells of a cell culture plate, and then incubated at 37° C., 5% CO2 for 2 hours. Following compound treatment, cells were washed with ice-cold Dulbecco's phosphate-buffered saline, no Ca^2+ or Mg^2+ (ThermoFisher Scientific 14190144), and then lysed in RIPA buffer (50 mM Tris-HCl pH 7.5, 1% Igepal, 0.5% sodium deoxycholate, 150 mM NaCl, and 0.5% sodium dodecyl sulfate) containing protease inhibitors (Roche 4693132001) and phosphatase inhibitors (Roche 4906837001). Phosphorylation of ERK1/2 in compound-treated lysates was assayed using Phospho-ERK1/2 Whole Cell Lysate kits (Meso Scale Discovery K151DWD) according to the manufacturer's protocol. Assay plates were read on a Meso Scale Discovery Sector Imager 6000, and data were analyzed using a 4-parameter logistic model to calculate IC50 values.

[4] = Homo sapiens, ASPC1, 2 h, read-out: 2 h p-ERK (AsPC-1 cells), IC50 (μM), AsPC-1 cells, 2 h compound treatment
[5] = read-out: 2 h p-ERK (AsPC-1 cells), IC50, AsPC-1 cells, 2 h compound treatment

## C[C@@H]1CCCN1c1nc(OC[C@@]23CCCN2C[C@H](F)C3)nc2c(F)c(-c3ccc(F)c4sc(N)c(C#N)c34)c(Cl)cc12 [Example 66, 2-Amino-4-(6-chloro-8-fluoro-2-(((2R,7aS)-2-fluorotetrahydro-1H-pyrrolizin-7a(5H)-yl)methoxy)-4-((R)-2-methylpyrrolidin-1-yl)quinazolin-7-yl)-7-fluorobenzo[b] thiophene-3-carbonitrile]
[1]
  IC50: 16 nM
[2]
  IC50: 24 nM
[3]; [4]
  IC50: 0.586 µM

## CS(=O)(=O)N1CC2(CCCN(c3nc(OC[C@@]45CCCN4C[C@H](F)C5)nc4c(F)c(-c5ccc(F)c6sc(N)c(C#N)c56)c(Cl)cc34)C2)C1 [Example 14]
[1]
  IC50: 4 nM
[2]
  IC50: 4 nM
[3]; [4]
  IC50: 0.729 µM

## N#Cc1c(N)sc2c(F)ccc(-c3c(Cl)cc4c(N5CCCCC5)nc(OC[C@@]56CCCN5C[C@H](F)C6)nc4c3F)c12 [Example 26, 2-Amino-4-(6-chloro-8-fluoro-2-(((2R,7aS)-2-fluorotetrahydro-1H-pyrrolizin-7a(5H)-yl)methoxy)-4-(piperidin-1-yl)quinazolin-7-yl)-7-fluorobenzo[6] thiophene-3-carbonitrile]
[1]
  IC50: 7 nM
[2]
  IC50: 6 nM
[3]; [4]
  IC50: 0.601 µM

## COC[C@@H]1CCCN1c1nc(OC[C@@]23CCCN2C[C@H](F)C3)nc2c(F)c(-c3ccc(F)c4sc(N)c(C#N)c34)c(Cl)cc12 [Example 48, 2-Amino-4-(6-chloro-8-fluoro-2-(((2R,7a.S)-2-fluorotetrahydro-1H-pyrrolizin-7a(5H)-yl)methoxy)-4-((S)-2-(methoxymethyl)pyrrolidin-1-yl)quinazolin-7-yl)-7-fluorobenzo[b] thiophene-3-carbonitrile]
[1]
  IC50: 21 nM
[2]
  IC50: 45 nM
[3]; [4]
  IC50: 3.06 µM

## N#Cc1c(N)sc2c(F)ccc(-c3c(Cl)cc4c(N5CCC[C@H](O)C5)nc(OC[C@@]56CCCN5C[C@H](F)C6)nc4c3F)c12 [Example 36, 2-Amino-4-(6-chloro-8-fluoro-2-(((2R,7aS)-2-fluorotetrahydro-1H-pyrrolizin-7a(5H)-yl)methoxy)-4-((S)-3-hydroxypiperidin-1-yl)quinazolin-7-yl)-7-fluorobenzo[b] thiophene-3-carbonitrile]
[1]
  IC50: 6 nM
[2]
  IC50: 5 nM
[3]; [4]
  IC50: 0.205 µM

## N#Cc1c(N)sc2c(F)ccc(-c3c(Cl)cc4c(N5CCC[C@H]5CO)nc(OC[C@@]56CCCN5C[C@H](F)C6)nc4c3F)c12 [Example 49, 2-Amino-4-(6-chloro-8-fluoro-2-(((2R,7aS)-2-fluorotetrahydro-1H-pyrrolizin-7a(5H)-yl)methoxy)-4-((S)-2-(hydroxymethyl)pyrrolidin-1-yl)quinazolin-7-yl)-7-fluorobenzo[b] thiophene-3-carbonitrile]
[1]
  IC50: 4 nM
[2]
  IC50: 4 nM
[3]; [4]
  IC50: 0.252 µM

## N#Cc1c(N)sc2c(F)ccc(-c3c(Cl)cc4c(N5CCOCC(F)C5)nc(OC[C@@]56CCCN5C[C@H](F)C6)nc4c3F)c12 (single isomer, unassigned) [Example 59]
[1]
  IC50: 2 nM
[2]
  IC50: 5 nM
[3]; [5]
  IC50: 0.062 µM

## C[C@@]1(O)CCCN(c2nc(OC[C@@]34CCCN3C[C@H](F)C4)nc3c(F)c(-c4ccc(F)c5sc(N)c(C#N)c45)c(Cl)cc23)C1 [Example 41, 2-Amino-4-(6-chloro-8-fluoro-2-(((2R,7aS)-2-fluorotetrahydro-1H-pyrrolizin-7a(5H)-yl)methoxy)-4-((R)-3-hydroxy-3-methylpiperidin-1-yl)quinazolin-7-yl)-7-fluorobenzo[b] thiophene-3-carbonitrile]
[1]
  IC50: 4 nM
[2]
  IC50: 3 nM
[3]; [4]
  IC50: 0.288 µM

## N#Cc1c(N)sc2c(F)ccc(-c3c(Cl)cc4c(N5CCC[C@@H](S(N)(=O)=O)C5)nc(OC[C@@]56CCCN5C[C@H](F)C6)nc4c3F)c12 [Example 12, (3R)-1-(7-(2-Amino-3-cyano-7-fluorobenzo[b]thiophen-4-yl)-6-chloro-8-fluoro-2-(((2R,7aS)-2-fluorotetrahydro-1H-pyrrolizin-7a(5H)-yl)methoxy)quinazolin-4-yl)piperidine-3-sulfonamide]
[1]
  IC50: 6 nM
[2]
  IC50: 6 nM
[3]; [4]
  IC50: 1.81 µM

## N#Cc1c(N)sc2c(F)ccc(-c3c(Cl)cc4c(N5CCC[C@@H](C#N)C5)nc(OC[C@@]56CCCN5C[C@H](F)C6)nc4c3F)c12 [Example 54, (3R)-1-(7-(2-Amino-3-cyano-7-fluorobenzo[b]thiophen-4-yl)-6-chloro-8-fluoro-2-(((2R,7aS)-2-fluorotetrahydro-1H-pyrrolizin-7a(5H)-yl)methoxy)quinazolin-4-yl)piperidine-3-carbonitrile]
[1]
  IC50: 13 nM
[2]
  IC50: 14 nM
[3]; [4]
  IC50: 1.09 µM

## CCC1(O)CCCN(c2nc(OC[C@@]34CCCN3C[C@H](F)C4)nc3c(F)c(-c4ccc(F)c5sc(N)c(C#N)c45)c(Cl)cc23)C1 (stereo partly drawn) [Example 37, 2-Amino-4-(6-chloro-4-(3-ethyl-3-hydroxypiperidin-1-yl)-8-fluoro-2-(((2R,7aS)-2-fluorotetrahydro-1H-pyrrolizin-7a(5H)-yl)methoxy)quinazolin-7-yl)-7-fluorobenzo[b] thiophone-3-carbonitrile]
[1]
  IC50: 10 nM
[2]
  IC50: 8 nM
[3]; [4]
  IC50: 0.859 µM

## CC1(O)CCCCN(c2nc(OC[C@@]34CCCN3C[C@H](F)C4)nc3c(F)c(-c4ccc(F)c5sc(N)c(C#N)c45)c(Cl)cc23)C1 (single isomer, unassigned) [Example 28]
[1]
  IC50: 5 nM
[2]
  IC50: 3 nM
[3]; [4]
  IC50: 0.097 µM

## N#Cc1c(N)sc2c(F)ccc(-c3c(Cl)cc4c(N5CCCC6(CCS(=O)(=O)C6)C5)nc(OC[C@@]56CCCN5C[C@H](F)C6)nc4c3F)c12 (stereo partly drawn) [Example 38, 2-Amino-4-(6-chloro-4-(2,2-dioxido-2-thia-7-azaspiro[4.5]decan-7-yl)-8-fluoro-2-(((2R,7aS)-2-fluorotetrahydro-1H-pyrrolizin-7a(5H)-yl)methoxy)quinazolin-7-yl)-7-fluorobenzo[b] thiophene-3-carbonitrile]
[1]
  IC50: 10 nM
[2]
  IC50: 10 nM
[3]; [4]
  IC50: 0.781 µM

## N#Cc1c(N)sc2c(F)ccc(-c3c(Cl)cc4c(C5CC5)nc(OC[C@@]56CCCN5C[C@H](F)C6)nc4c3F)c12 [Example 71, 2-Amino-4-(6-chloro-4-cyclopropyl-8-fluoro-2-(((2R,7aS)-2-fluorotetrahydro-1H-pyrrolizin-7a(5H)-yl)methoxy)quinazolin-7-yl)-7-fluorobenzo[b]thiophene-3-carbonitrile bis(2,2,2-trifluoroacetate)]
[1]
  IC50: 5 nM
[2]
  IC50: 11 nM
[3]; [4]
  IC50: 0.185 µM

## CCC1(O)COCCN(c2nc(OC[C@@]34CCCN3C[C@H](F)C4)nc3c(F)c(-c4ccc(F)c5sc(N)c(C#N)c45)c(Cl)cc23)C1 (single isomer, unassigned) [Example 44]
[1]
  IC50: 3 nM
[2]
  IC50: 2 nM
[3]; [5]
  IC50: 0.032 µM

## C[C@@]1(CO)CCCN1c1nc(OC[C@@]23CCCN2C[C@H](F)C3)nc2c(F)c(-c3ccc(F)c4sc(N)c(C#N)c34)c(Cl)cc12 [Example 47, 2-Amino-4-(6-chloro-8-fluoro-2-(((2R,7aS)-2-fluorotetrahydro-1H-pyrrolizin-7a(5H)-yl)methoxy)-4-((S)-2-(hydroxymethyl)-2-methylpyrrolidin-1-yl)quinazolin-7-yl)-7-fluorobenzo[6] thiophene-3-carbonitrile]
[1]
  IC50: 7 nM
[2]
  IC50: 17 nM
[3]; [4]
  IC50: 1.11 µM
